Results from the kinase profiling compilation of Christmann-Franck et al. (2016).

Key:
Test in all cases: radiometric filter-binding kinase assay, Kinase HotSpot
Conditions in all cases: compound 0.5 µM; ATP 10 µM
ABL1 (human) = ABL1 (human) (UniProt P00519)
ACVRL1 (human) = ACVRL1 (human) (UniProt P37023)
AKT1 (human) = AKT1 (human) (UniProt P31749)
AURKC (human) = AURKC (human) (UniProt Q9UQB9)
CDC42BPA (human) = CDC42BPA (human) (UniProt Q5VT25)
CDK6 CCND3 (human) = CDK6 CCND3 (human) (UniProt P30281+Q00534)
CDK9 CCNK (human) = CDK9 CCNK (human) (UniProt O75909+P50750)
CHUK (human) = CHUK (human) (UniProt O15111)
CSK (human) = CSK (human) (UniProt P41240)
CSNK1G2 (human) = CSNK1G2 (human) (UniProt P78368)
CSNK2A1 (human) = CSNK2A1 (human) (UniProt P68400)
DCLK2 (human) = DCLK2 (human) (UniProt Q8N568)
DYRK1B (human) = DYRK1B (human) (UniProt Q9Y463)
DYRK2 (human) = DYRK2 (human) (UniProt Q92630)
EPHA1 (human) = EPHA1 (human) (UniProt P21709)
FGR (human) = FGR (human) (UniProt P09769)
GRK6 (human) = GRK6 (human) (UniProt P43250)
HIPK1 (human) = HIPK1 (human) (UniProt Q86Z02)
IRAK1 (human) = IRAK1 (human) (UniProt P51617)
[1] = molecular target: JAK1 JH1 catalytic (human) (UniProt P23458)
JAK2 JH1 JH2 (human) = JAK2 JH1 JH2 (human) (UniProt O60674)
LTK (human) = LTK (human) (UniProt P29376)
MAP4K2 (human) = MAP4K2 (human) (UniProt Q12851)
MARK1 (human) = MARK1 (human) (UniProt Q9P0L2)
MST4 (human) = MST4 (human) (UniProt Q9P289)
PDGFRA (human) = PDGFRA (human) (UniProt P16234)
PDPK1 (human) = PDPK1 (human) (UniProt O15530)
PKN1 (human) = PKN1 (human) (UniProt Q16512)
PNCK (human) = PNCK (human) (UniProt Q6P2M8)
PRKCI (human) = PRKCI (human) (UniProt P41743)
PRKCZ (human) = PRKCZ (human) (UniProt Q05513)
PRKX (human) = PRKX (human) (UniProt P51817)
PTK2B (human) = PTK2B (human) (UniProt Q14289)
RET (human) = RET (human) (UniProt P07949)
SLK (human) = SLK (human) (UniProt Q9H2G2)
SRMS (human) = SRMS (human) (UniProt Q9H3Y6)
SRPK3 (human) = SRPK3 (human) (UniProt Q9UPE1)
STK3 (human) = STK3 (human) (UniProt Q13188)
SYK (human) = SYK (human) (UniProt P43405)
WNK2 (human) = WNK2 (human) (UniProt Q9Y3S1)
EGFR (human) = EGFR (human) (UniProt P00533)

Sequence of AKT1 (human) (P31749 whole entry, looked up): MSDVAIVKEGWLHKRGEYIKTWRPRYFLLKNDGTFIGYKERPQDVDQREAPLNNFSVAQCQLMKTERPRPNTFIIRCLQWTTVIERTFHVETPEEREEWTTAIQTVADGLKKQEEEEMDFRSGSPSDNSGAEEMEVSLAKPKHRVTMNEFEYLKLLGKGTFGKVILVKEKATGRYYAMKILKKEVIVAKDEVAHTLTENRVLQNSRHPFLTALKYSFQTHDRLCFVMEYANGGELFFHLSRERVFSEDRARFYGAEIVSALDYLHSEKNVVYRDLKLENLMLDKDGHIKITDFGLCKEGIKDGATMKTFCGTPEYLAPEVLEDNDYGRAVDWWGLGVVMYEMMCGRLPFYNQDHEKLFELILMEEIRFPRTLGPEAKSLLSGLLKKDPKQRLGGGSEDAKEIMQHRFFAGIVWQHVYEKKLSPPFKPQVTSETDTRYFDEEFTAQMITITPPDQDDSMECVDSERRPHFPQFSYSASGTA
Sequence of CSK (human) (P41240 whole entry, looked up): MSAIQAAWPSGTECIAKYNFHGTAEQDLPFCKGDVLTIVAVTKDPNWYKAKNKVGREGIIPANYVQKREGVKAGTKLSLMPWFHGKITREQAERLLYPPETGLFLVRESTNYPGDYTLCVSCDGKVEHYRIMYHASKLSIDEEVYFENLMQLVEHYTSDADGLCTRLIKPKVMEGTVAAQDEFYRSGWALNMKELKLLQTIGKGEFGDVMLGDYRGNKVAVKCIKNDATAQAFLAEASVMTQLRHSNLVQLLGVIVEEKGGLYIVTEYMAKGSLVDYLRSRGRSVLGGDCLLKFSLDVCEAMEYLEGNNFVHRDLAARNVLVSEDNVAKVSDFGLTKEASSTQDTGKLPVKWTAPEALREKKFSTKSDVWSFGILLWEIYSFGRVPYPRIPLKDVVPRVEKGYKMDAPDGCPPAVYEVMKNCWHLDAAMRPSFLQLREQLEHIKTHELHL
Sequence of PDPK1 (human) (O15530 whole entry, looked up): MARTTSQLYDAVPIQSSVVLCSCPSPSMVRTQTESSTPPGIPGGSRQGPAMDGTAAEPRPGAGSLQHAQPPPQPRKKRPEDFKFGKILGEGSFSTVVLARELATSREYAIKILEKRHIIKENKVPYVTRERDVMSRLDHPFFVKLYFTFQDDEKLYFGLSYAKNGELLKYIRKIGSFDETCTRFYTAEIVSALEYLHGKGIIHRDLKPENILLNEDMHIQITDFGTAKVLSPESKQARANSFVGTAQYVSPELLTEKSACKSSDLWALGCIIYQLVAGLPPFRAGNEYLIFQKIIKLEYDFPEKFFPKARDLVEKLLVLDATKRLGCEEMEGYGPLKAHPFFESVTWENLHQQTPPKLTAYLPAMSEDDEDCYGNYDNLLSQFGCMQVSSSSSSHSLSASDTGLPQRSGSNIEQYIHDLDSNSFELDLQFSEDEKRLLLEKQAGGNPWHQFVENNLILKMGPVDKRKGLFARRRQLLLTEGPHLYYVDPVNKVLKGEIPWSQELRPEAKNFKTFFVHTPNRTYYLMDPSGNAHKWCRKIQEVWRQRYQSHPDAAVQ
Sequence of DYRK1B (human) (Q9Y463 whole entry, looked up): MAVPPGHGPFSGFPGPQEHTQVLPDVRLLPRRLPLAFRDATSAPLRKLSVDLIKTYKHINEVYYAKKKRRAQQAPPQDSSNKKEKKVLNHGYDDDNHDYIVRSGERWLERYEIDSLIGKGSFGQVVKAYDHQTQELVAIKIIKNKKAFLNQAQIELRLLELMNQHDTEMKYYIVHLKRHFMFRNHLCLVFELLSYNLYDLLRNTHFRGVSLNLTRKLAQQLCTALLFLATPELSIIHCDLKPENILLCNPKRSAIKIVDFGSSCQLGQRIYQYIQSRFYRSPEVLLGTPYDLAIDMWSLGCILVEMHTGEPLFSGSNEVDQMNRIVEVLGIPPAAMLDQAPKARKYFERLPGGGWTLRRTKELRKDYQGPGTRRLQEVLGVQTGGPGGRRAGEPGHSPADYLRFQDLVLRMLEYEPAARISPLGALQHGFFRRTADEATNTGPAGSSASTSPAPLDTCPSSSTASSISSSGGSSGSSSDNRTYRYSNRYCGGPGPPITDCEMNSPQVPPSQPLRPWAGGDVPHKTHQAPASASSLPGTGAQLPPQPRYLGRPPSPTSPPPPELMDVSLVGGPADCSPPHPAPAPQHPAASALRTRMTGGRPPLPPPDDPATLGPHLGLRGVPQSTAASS
Sequence of MST4 (human) (Q9P289 whole entry, looked up): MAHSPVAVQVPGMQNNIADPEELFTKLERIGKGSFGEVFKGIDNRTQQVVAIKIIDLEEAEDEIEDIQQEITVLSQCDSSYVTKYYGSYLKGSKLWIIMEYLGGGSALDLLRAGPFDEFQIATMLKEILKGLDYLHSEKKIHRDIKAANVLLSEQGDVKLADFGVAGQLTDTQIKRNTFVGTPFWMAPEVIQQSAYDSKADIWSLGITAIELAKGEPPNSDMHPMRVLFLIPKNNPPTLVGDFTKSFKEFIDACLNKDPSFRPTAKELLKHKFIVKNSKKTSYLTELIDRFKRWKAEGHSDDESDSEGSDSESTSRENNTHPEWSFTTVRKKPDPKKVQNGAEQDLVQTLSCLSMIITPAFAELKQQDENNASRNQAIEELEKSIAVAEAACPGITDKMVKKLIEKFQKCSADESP
Sequence of ACVRL1 (human) (P37023 whole entry, looked up): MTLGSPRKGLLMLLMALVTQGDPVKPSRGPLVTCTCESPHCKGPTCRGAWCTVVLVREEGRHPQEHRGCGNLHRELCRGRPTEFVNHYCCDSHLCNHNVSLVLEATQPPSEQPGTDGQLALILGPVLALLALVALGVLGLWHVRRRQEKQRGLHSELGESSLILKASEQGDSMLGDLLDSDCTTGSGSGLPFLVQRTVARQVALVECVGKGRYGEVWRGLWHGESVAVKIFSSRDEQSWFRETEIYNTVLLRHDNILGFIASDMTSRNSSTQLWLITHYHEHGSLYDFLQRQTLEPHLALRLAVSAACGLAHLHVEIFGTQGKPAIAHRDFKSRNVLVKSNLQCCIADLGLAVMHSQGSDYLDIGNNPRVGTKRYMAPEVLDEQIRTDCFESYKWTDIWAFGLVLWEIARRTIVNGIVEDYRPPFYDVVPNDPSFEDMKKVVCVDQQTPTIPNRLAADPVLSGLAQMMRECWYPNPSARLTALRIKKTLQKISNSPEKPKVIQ
Sequence of PRKX (human) (P51817 whole entry, looked up): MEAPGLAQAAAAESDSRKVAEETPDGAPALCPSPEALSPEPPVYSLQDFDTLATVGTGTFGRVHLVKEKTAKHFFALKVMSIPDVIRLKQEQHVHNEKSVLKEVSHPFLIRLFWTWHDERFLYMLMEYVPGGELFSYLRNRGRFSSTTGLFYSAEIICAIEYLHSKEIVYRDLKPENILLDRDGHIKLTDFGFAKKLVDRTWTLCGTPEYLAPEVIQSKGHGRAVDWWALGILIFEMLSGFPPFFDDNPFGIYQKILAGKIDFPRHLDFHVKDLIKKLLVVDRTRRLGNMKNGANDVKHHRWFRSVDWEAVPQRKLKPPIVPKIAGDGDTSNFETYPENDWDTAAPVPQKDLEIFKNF
Sequence of LTK (human) (P29376 whole entry, looked up): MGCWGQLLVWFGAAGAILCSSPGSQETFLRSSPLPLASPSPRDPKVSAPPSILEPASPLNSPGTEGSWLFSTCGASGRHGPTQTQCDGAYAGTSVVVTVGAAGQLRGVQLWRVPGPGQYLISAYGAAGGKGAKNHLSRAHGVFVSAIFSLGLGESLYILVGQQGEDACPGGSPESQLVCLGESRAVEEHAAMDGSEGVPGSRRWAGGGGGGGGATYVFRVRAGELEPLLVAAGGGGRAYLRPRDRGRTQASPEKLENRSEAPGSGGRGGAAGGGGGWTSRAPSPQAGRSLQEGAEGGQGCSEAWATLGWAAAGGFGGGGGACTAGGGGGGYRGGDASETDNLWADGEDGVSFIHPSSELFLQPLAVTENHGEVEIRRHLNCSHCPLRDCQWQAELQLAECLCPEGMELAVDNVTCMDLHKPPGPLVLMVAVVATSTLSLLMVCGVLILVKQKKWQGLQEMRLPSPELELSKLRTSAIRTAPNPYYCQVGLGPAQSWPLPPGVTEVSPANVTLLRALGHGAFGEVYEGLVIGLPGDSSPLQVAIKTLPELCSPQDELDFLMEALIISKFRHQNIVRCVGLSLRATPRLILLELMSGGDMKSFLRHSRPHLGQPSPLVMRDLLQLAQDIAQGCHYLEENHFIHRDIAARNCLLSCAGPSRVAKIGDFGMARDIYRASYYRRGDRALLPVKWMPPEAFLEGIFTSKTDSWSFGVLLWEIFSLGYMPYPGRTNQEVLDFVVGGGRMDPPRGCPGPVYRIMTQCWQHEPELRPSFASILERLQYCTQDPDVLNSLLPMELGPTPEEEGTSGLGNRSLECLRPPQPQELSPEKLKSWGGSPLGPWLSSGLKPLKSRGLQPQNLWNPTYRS
Sequence of PRKCI (human) (P41743 whole entry, looked up): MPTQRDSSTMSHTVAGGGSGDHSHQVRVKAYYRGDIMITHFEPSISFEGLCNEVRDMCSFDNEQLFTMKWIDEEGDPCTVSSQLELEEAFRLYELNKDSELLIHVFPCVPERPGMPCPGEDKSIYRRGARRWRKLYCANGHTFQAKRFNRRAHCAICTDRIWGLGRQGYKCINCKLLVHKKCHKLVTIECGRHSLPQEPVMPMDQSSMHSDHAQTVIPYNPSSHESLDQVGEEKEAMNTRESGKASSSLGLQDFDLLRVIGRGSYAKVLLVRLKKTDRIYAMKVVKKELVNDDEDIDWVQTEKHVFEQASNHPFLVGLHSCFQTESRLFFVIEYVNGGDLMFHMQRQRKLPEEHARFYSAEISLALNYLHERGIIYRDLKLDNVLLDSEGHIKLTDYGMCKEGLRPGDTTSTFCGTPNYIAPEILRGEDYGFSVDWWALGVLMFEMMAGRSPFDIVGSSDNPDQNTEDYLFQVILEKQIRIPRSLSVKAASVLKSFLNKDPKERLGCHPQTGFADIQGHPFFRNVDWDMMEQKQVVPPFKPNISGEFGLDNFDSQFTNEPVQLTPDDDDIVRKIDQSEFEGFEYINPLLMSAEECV

| Structure (SMILES) | residual activity (ABL1 (human)) [%] | residual activity (ACVRL1 (human)) [%] | residual activity (AKT1 (human)) [%] | residual activity (AURKC (human)) [%] | residual activity (CDC42BPA (human)) [%] | residual activity (CDK6 CCND3 (human)) [%] | residual activity (CDK9 CCNK (human)) [%] | residual activity (CSNK1G2 (human)) [%] | residual activity (CSNK2A1 (human)) [%] | residual activity (DCLK2 (human)) [%] | residual activity (DYRK1B (human)) [%] | residual activity (DYRK2 (human)) [%] | residual activity (EPHA1 (human)) [%] | residual activity (FGR (human)) [%] | residual activity (GRK6 (human)) [%] | residual activity (HIPK1 (human)) [%] | residual activity (IRAK1 (human)) [%] | residual activity [1] [%] | residual activity (JAK2 JH1 JH2 (human)) [%] | residual activity (LTK (human)) [%] | further results |
| --- | --- | --- | --- | --- | --- | --- | --- | --- | --- | --- | --- | --- | --- | --- | --- | --- | --- | --- | --- | --- | --- |
| CC#CC(=O)Nc1cc2c(Nc3ccc(F)c(Cl)c3)ncnc2cn1 | 97.8 | 101 | 98.1 | 95.9 | 93.1 | 103 | 98.4 | 94.9 | 90.9 | 102 | 103 | 91.3 | 88.3 | 89.6 | 104 | 108 | 104 | 104 | 97.4 | 93 | residual activity (CHUK (human)): 92.1%; residual activity (CSK (human)): 100%; residual activity (MAP4K2 (human)): 114%; residual activity (MARK1 (human)): 98.2%; residual activity (MST4 (human)): 103%; residual activity (PDGFRA (human)): 94.9%; residual activity (PDPK1 (human)): 99.6%; residual activity (PKN1 (human)): 101%; residual activity (PNCK (human)): 99.4%; residual activity (PRKCI (human)): 96.6%; residual activity (PRKCZ (human)): 114%; residual activity (PRKX (human)): 103%; residual activity (PTK2B (human)): 94.1%; residual activity (RET (human)): 84.3%; residual activity (SLK (human)): 93.6%; residual activity (SRMS (human)): 96.1%; residual activity (SRPK3 (human)): 101%; residual activity (STK3 (human)): 106%; residual activity (SYK (human)): 95.4%; residual activity (WNK2 (human)): 107% |
| O=S(=O)(c1cccc2cnccc12)N1CCCNCC1 | 96.8 | 111 | 99.3 | 97.4 | 104 | 95.8 | 86 | 93.7 | 94.9 | 83.9 | 96.3 | 97.9 | 79.9 | 90.5 | 95.4 | 96.8 | 86.2 | 111 | 107 | 95.2 | residual activity (CSK (human)): 87.9%; residual activity (MAP4K2 (human)): 45.7%; residual activity (MARK1 (human)): 98.6%; residual activity (MST4 (human)): 90%; residual activity (PDPK1 (human)): 91.3%; residual activity (PKN1 (human)): 40.5%; residual activity (PNCK (human)): 91.6%; residual activity (PRKCI (human)): 87.2%; residual activity (PRKCZ (human)): 94.7%; residual activity (PRKX (human)): 23.5%; residual activity (PTK2B (human)): 90.6%; residual activity (RET (human)): 97.8%; residual activity (SLK (human)): 95.8%; residual activity (SRMS (human)): 97.5%; residual activity (SRPK3 (human)): 96.4%; residual activity (STK3 (human)): 90%; residual activity (SYK (human)): 84.3%; residual activity (WNK2 (human)): 99.3% |
| CC[n+]1c(/C=C/N(C)c2ccccc2)n(-c2ccccc2)c2ccc(-c3nc4ccccc4s3)cc21 | 96.7 | 110 | 104 | 91.3 | 102 | 92.2 | 106 | 101 | 96.8 | 102 | 101 | 105 | 77.1 | 94.1 | 98.9 | 99.5 | 102 | 104 | 98.8 | 90.7 | residual activity (CHUK (human)): 86%; residual activity (CSK (human)): 100%; residual activity (EGFR (human)): 103%; residual activity (MAP4K2 (human)): 103%; residual activity (MARK1 (human)): 104%; residual activity (MST4 (human)): 93.7%; residual activity (PDGFRA (human)): 95.2%; residual activity (PDPK1 (human)): 103%; residual activity (PKN1 (human)): 85.7%; residual activity (PNCK (human)): 114%; residual activity (PRKCI (human)): 90.1%; residual activity (PRKCZ (human)): 99.8%; residual activity (PRKX (human)): 108%; residual activity (PTK2B (human)): 103%; residual activity (RET (human)): 95.6%; residual activity (SLK (human)): 101%; residual activity (SRMS (human)): 93.7%; residual activity (STK3 (human)): 98.9%; residual activity (SYK (human)): 104%; residual activity (WNK2 (human)): 112% |
| COc1ccc(COc2ccc(Cc3cnc(N)nc3N)cc2OC)cc1 | 102 | 101 | 97.4 | 97.5 | 94.4 | 94.5 | 102 | 101 | 105 | 101 | 104 | 105 | 85.7 | 92.3 | 99.8 | 110 | 123 | 105 | 89.2 | 100 | residual activity (CHUK (human)): 94.7%; residual activity (EGFR (human)): 96.9%; residual activity (MAP4K2 (human)): 120%; residual activity (MARK1 (human)): 103%; residual activity (MST4 (human)): 95.5%; residual activity (PDGFRA (human)): 99.4%; residual activity (PDPK1 (human)): 89.4%; residual activity (PKN1 (human)): 101%; residual activity (PNCK (human)): 98.4%; residual activity (PRKCI (human)): 91.6%; residual activity (PRKCZ (human)): 93.4%; residual activity (PRKX (human)): 105%; residual activity (PTK2B (human)): 86.1%; residual activity (RET (human)): 108%; residual activity (SLK (human)): 97.7%; residual activity (SRMS (human)): 95.9%; residual activity (SRPK3 (human)): 102%; residual activity (STK3 (human)): 98.4%; residual activity (SYK (human)): 89%; residual activity (WNK2 (human)): 94.6% |
| c1ccc(-c2n[nH]c3c2oc2ccccc23)cc1 | 99.6 | 111 | 86.9 | 96.7 | 87.4 | 91.6 | 86.2 | 86.4 | 87.2 | 90.2 | 101 | 95.4 | 78.6 | 116 | 102 | 103 | 98 | 104 | 89.8 | 94.8 | residual activity (CHUK (human)): 92.3%; residual activity (CSK (human)): 92.6%; residual activity (MAP4K2 (human)): 61.8%; residual activity (MARK1 (human)): 98.6%; residual activity (MST4 (human)): 90.6%; residual activity (PDGFRA (human)): 73.7%; residual activity (PDPK1 (human)): 94.7%; residual activity (PKN1 (human)): 94.1%; residual activity (PNCK (human)): 98.6%; residual activity (PRKCI (human)): 85.9%; residual activity (PRKCZ (human)): 87.1%; residual activity (PRKX (human)): 79.8%; residual activity (PTK2B (human)): 96.8%; residual activity (RET (human)): 78.2%; residual activity (SLK (human)): 107%; residual activity (SRMS (human)): 99.5%; residual activity (SRPK3 (human)): 94.5%; residual activity (STK3 (human)): 49.6%; residual activity (SYK (human)): 97.7%; residual activity (WNK2 (human)): 102% |
